Data published in patent publication US20040122026A1, “Imidazolidine compounds” (Millennium Pharmaceuticals, Inc., priority 2002, published 2004).

Target: T1, CXCR3 (Homo sapiens, UniProt P49682)
T1 construct: expressed in transfected cells; membrane preparation
T1 sequence (P49682 1-368): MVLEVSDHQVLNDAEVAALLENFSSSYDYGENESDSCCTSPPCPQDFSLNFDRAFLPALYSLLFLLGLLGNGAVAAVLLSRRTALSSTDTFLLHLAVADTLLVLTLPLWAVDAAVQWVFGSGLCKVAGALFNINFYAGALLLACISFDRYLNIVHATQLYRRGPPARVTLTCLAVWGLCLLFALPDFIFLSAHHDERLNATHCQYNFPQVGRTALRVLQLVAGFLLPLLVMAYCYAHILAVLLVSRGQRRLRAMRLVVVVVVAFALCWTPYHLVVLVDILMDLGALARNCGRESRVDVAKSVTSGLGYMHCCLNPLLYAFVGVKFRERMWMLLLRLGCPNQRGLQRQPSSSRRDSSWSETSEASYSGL
Experiment: CXCR3/IP-10 radioligand binding (125I-IP-10 competition on CXCR3.L1/2 cell membranes)
Conditions: test compound 10 μmol/L; 125I-labeled IP-10 binding to CXCR3.L1/2 transfectant cell membranes; results Table 5
Description: The activity of the compounds of the present invention can be assessed using a suitable assay, such as a receptor binding assay, a chemotaxis assay, an extracellular acidification assay or a calcium flux assay (see, for example, Hesselgesser et al., J. Biol. Chem., 273(25): 15687-15692 (1998) and WO 98/02151). For example, as described herein, small organic molecule antagonists of CXCR3/IP-10 binding have been identified utilizing cells engineered to express recombinant human CXCR3 (CXCR3.L1/2) and which bind ^125I-IP-10 and chemotax in response to IP-10, Mig, or I-TAC. Specifically, a high through-put receptor binding assay, which monitors ^125I-IP-10 biding to CXCR3.L1/2 cell membranes, was used to identify small molecule antagonists. Binding assays can be performed using other ligands of CXCR3, such as, Mig, and/or I-TAC.
CXCR3/IP-10 Radioligand Binding:
CXCR3.L1/2 Membrane Preparation:
CXCR3.L1/2 cells were pelleted by centrifugation and stored at −80° C. The cells were lysed by thawing and resuspending at about 1.5×10^7 cells/mL in a hypotonic buffer (5 mmol/L HEPES (pH 7.2), 2 mmol/L EDTA, 10 μg/mL each leupeptin, aprotinin, and chymostatin, and 100 μg/mL PMSF (all from Sigma, St. Louis)). Nuclei and cellular debris are removed by centrifugation ([…], at 4° C.) for 10 min. The supernatant was transferred to chilled centrifuge tubes (Nalge, Rochester, N.Y.) and the membrane fraction was recovered by centrifugation (25,000 g at 4° C.) for 45 min. The membrane pellet was resuspended in freezing buffer (10 mmol/L HEPES (pH 7.2), 300 mmol/L Sucrose, 5 μg/mL each of leupeptin, aprotinin, and chymostatin, and 10 μg/mL PMSF). The total protein concentration was determined using a coomassie blue staining protein concentration assay kit (BioRad). The membrane preparations are aliquoted and stored at −80° C. until time of use.
CXCR3/IP-10 binding was performed in 96-well polypropylene plates (Costar) in a final volume of 0.1 mL of HBB buffer (50 mmol/L Hepes pH 7.4, 1 mmol/L CaCl2, 5 mmol/L MgCl2, 0.02% sodium azide, 0.5% BSA (bovine serum albumin)), containing 1 to 5 μg CXCR3.L1/2 transfectant cell membrane protein and 0.05 to 0.2 nmol/L of ^125I-labeled IP-10 (NEN, Boston, Mass.). Competition binding experiments were performed by including variable concentrations of unlabeled IP-10 or test compound. Nonspecific binding was determined following the addition of a 250 nmol/L unlabelled IP-10. Samples were incubated for 60 min at room temperature, and bound and free tracer (^125I-labeled IP-10) were separated by filtration through 96-well GF/B filterplates presoaked in 0.3% polyethyleneimine. The filters were washed in HBB further supplemented with 0.5 mol/L NaCl, dried, and the amount of bound radioactivity determined by liquid scintillation counting. The competition is presented as the percent specific binding as calculated by 100×[(S−B)/(T−B)], where S is the radioactivity bound for each sample, B is background binding, and T is total bound in the absence of competitors. Duplicates were used throughout the experiments.

Question: Which inhibition at 10 µM does the source give for `Cc1cc(C)cc(CN2CCN(CCC(=O)N(CC(=O)O)c3cccc(CN4CCCCC4)c3)C2=C(C#N)C#N)c1` [Compound 9, N-Carboxymethyl-N-[3-(piperidinomethyl)phenyl]-3-[3-(3,5-dimethylbenzyl)-2-dicyanomethylideneimidazolidin-1-yl]propionamide] here?
Answer: The inhibition at 10 µM was 83%.

Question: How did the inhibition at 10 µM turn out when `Cc1cc(C)cc(CN2CCN(CCC(=O)N(CCO)c3cccc(CN4CCCCC4)c3)C2=C(C#N)C#N)c1` [Compound 7, N-(2-Hydroxyethyl)-N-[3-(piperidinomethyl)phenyl]-3-[3-(3,5-dimethylbenzyl)-2-dicyanomethylideneimidazolidin-1-yl]propionamide] was run?
Answer: Its inhibition at 10 µM is 83%.

Question: Which inhibition at 10 µM does the source give for `CC(=O)OCCN(C(=O)CCN1CCN(Cc2cc(C)cc(C)c2)C1=C(C#N)C#N)c1cccc(CN2CCCCC2)c1` [Compound 6, N-(2-Acetoxyethyl)-N-[3-(piperidinomethyl)phenyl]-3-[3-(3,5-dimethylbenzyl)-2-dicyanomethylideneimidazolidin-1-yl]propionamide] here?
Answer: The inhibition at 10 µM was 93%.

Question: `Cc1cc(C)cc(CN2CCN(CCC(=O)N(CC(N)=O)c3cccc(CN4CCCCC4)c3)C2=C(C#N)C#N)c1` [Compound 12, N-Aminocarbonylmethyl-N-[3-(piperidinomethyl)phenyl]-3-[3-(3,5-dimethylbenzyl)-2-dicyanomethylideneimidazolidin-1-yl]propionamide] was tested. Which inhibition at 10 µM did it give?
Answer: The inhibition at 10 µM was 84%.

Question: How did the inhibition at 10 µM turn out when `Cc1cc(C)cc(CN2CCN(CCC(=O)N(CCCF)c3cccc(CN4CCCCC4)c3)C2=C(C#N)C#N)c1` [Compound 11, N-(3-Fluoropropyl)-N-[3-(piperidinomethyl)phenyl]-3-[3-(3,5-dimethylbenzyl)-2-dicyanomethylideneimidazolidin-1-yl]propionamide] was run?
Answer: Its inhibition at 10 µM is 95%.

Question: How did the inhibition at 10 µM turn out when `Cc1cc(C)cc(CN2CCN(CCC(=O)N(c3cccc(CN4CCCCC4)c3)C3CCCCC3)C2=C(C#N)C#N)c1` [Compound 4, N-Cyclohexyl-N-[3-(piperidinomethyl)phenyl]-3-[3-(3,5-dimethylbenzyl)-2-dicyanomethylideneimidazolidin-1-yl]propionamide] was run?
Answer: Its inhibition at 10 µM is 109%.

Question: `CCCN(C(=O)CCN1CCN(Cc2cc(C)cc(C)c2)C1=C(C#N)C#N)c1cccc(CN2CCCCC2)c1` [Compound 2, N-Propyl-N-[3-(piperidinomethyl)phenyl]-3-[3-(3,5-dimethylbenzyl)-2-dicyanomethylideneimidazolidin-1-yl]propionamide] was tested. Which inhibition at 10 µM did it give?
Answer: The inhibition at 10 µM was 99%.

Question: How did the inhibition at 10 µM turn out when `Cc1cc(C)cc(CN2CCN(CCC(=O)N(c3cccc(CN4CCCCC4)c3)C(C)C)C2=C(C#N)C#N)c1` [Compound 3, N-Isopropyl-N-[3-(piperidinomethyl)phenyl]-3-[3-(3,5-dimethylbenzyl)-2-dicyanomethylideneimidazolidin-1-yl]propionamide] was run?
Answer: Its inhibition at 10 µM is 106%.

Question: Which inhibition at 10 µM does the source give for `Cc1cc(C)cc(CN2CCN(CCC(=O)N(Cc3ccccc3)c3cccc(CN4CCCCC4)c3)C2=C(C#N)C#N)c1` [Compound 5, N-Benzyl-N-[3-(piperidinomethyl)phenyl]-3-[3-(3,5-dimethylbenzyl)-2-dicyanomethylideneimidazolidin-1-yl]propionamide] here?
Answer: The inhibition at 10 µM was 95%.

Question: Which inhibition at 10 µM does the source give for `CCOC(=O)CN(C(=O)CCN1CCN(Cc2cc(C)cc(C)c2)C1=C(C#N)C#N)c1cccc(CN2CCCCC2)c1` [Compound 8, N-Ethoxycarbonylmethyl-N-[3-(piperidinomethyl)phenyl]-3-[3-(3,5-dimethylbenzyl)-2-dicyanomethylideneimidazolidin-1-yl]propionamide] here?
Answer: Its inhibition at 10 µM is 95%.

Same assay, conditions: test compound 10 μmol/L; 125I-labeled IP-10 binding to CXCR3.L1/2 transfectant cell membranes; results Table 6

Question: Which inhibition at 10 µM does the source give for `Cc1cc(C)cc(CN2CCN(CCC(=O)N(c3cccc(CN4CCOCC4)c3)C(C)C)C2=C(C#N)C#N)c1` [Compound 22, N-Isopropyl-N-[3-(morpholinomethyl)phenyl]-3-[3-(3,5-dimethylbenzyl)-2-dicyanomethylideneimidazolidin-1-yl]propionamide] here?
Answer: Its inhibition at 10 µM is 93%.

Question: For `CC(C)N(C(=O)CCN1CCN(C2Cc3cccc4cccc2c34)C1=C(C#N)C#N)c1cccc(CN2CCCCC2)c1` (stereo not drawn) [Compound 15, N-Isopropyl-N-[3-(piperidinomethyl)phenyl]-3-[3-(1-acenaphthenyl)-2-dicyanomethylideneimidazolidin-1-yl]propionamide], which inhibition at 10 µM is on record?
Answer: The inhibition at 10 µM was 95%.

Question: Which inhibition at 10 µM does the source give for `CCN(CC)Cc1cccc(N(C(=O)CCN2CCN(Cc3cc(C)cc(C)c3)C2=C(C#N)C#N)C(C)C)c1` [Compound 24, N-Isopropyl-N-[3-(diethylaminomethyl)phenyl]-3-[3-(3,5-dimethylbenzyl)-2-dicyanomethylideneimidazolidin-1-yl]propionamide] here?
Answer: The inhibition at 10 µM was 90%.

Question: How did the “% inhibition at 10 μmol/L” value turn out when “N-Isopropyl-N-[3-(piperidinomethyl)phenyl]-3-[3-(1-naphthalenylmethyl)-2-dicyanomethylidene imidazolidin-1-yl]propionamide [Compound 16]” was run?
Answer: The value was 95%.

Question: `Cc1cc(C)cc(CN2CCN(CCC(=O)N(c3cccc(CN4CCN(C)CC4)c3)C(C)C)C2=C(C#N)C#N)c1` [Compound 23, N-Isopropyl-N-[3-(4-methyl-1-piperazinylmethyl)phenyl]-3-[3-(3,5-dimethylbenzyl)-2-dicyanomethylideneimidazolidin-1-yl]propionamide] was tested. Which “% inhibition at 10 μmol/L” value did it give?
Answer: The value was 92%.

Question: With `CCCN(C(=O)CCN1CCN(Cc2cc(Cl)cc(Cl)c2)C1=C(C#N)C#N)c1cccc(CN2CCCCC2)c1C` [Compound 20, N-Propyl-N-[2-methyl-3-(piperidinomethyl)phenyl]-3-[3-(3,5-dichlorobenzyl)-2-dicyanomethylideneimidazolidin-1-yl]propionamide] as the compound, how does the inhibition at 10 µM read?
Answer: The inhibition at 10 µM was 68%.

Question: With `Cc1cccc(CN2CCN(CCC(=O)N(c3cccc(CN4CCCCC4)c3)C(C)C)C2=C(C#N)C#N)c1C` [Compound 14, N-Isopropyl-N-[3-(piperidinomethyl)phenyl]-3-[3-(2,3-dimethylbenzyl)-2-dicyanomethylideneimidazolidin-1-yl]propionamide] as the compound, how does the inhibition at 10 µM read?
Answer: Its inhibition at 10 µM is 105%.

Question: `CCOC(=O)C1CCN(Cc2cccc(N(C(=O)CCN3CCN(Cc4cc(C)cc(C)c4)C3=C(C#N)C#N)C(C)C)c2)CC1` [Compound 25, N-Isopropyl-N-[3-(4-ethoxycarbonylpiperidinomethyl)phenyl]-3-[3-(3,5-dimethylbenzyl)-2-dicyanomethylideneimidazolidin-1-yl]propionamide] was tested. Which inhibition at 10 µM did it give?
Answer: The inhibition at 10 µM was 107%.

Question: For `Cc1cc(C)cc(CN2CCN(CCC(=O)N(c3cccc(CN(CCO)CCO)c3)C(C)C)C2=C(C#N)C#N)c1` [Compound 26, N-Isopropyl-N-[3-(bis(2-hydroxyethyl)aminomethyl)phenyl]-3-[3-(3,5-dimethylbenzyl)-2-dicyanomethylideneimidazolidin-1-yl]propionamide], which inhibition at 10 µM is on record?
Answer: The inhibition at 10 µM was 93%.

Question: Which inhibition at 10 µM does the source give for `CC(C)N(C(=O)CCN1CCN(Cc2cc(Cl)cc(Cl)c2)C1=C(C#N)C#N)c1cccc(CN2CCCCC2)c1` [Compound 17, N-Isopropyl-N-[3-(piperidinomethyl)phenyl]-3-[3-(3,5-dichlorobenzyl)-2-dicyanomethylideneimidazolidin-1-yl]propionamide] here?
Answer: Its inhibition at 10 µM is 93%.

Question: How did the inhibition at 10 µM turn out when `CCCN(C(=O)CCN1CCN(Cc2cc(Cl)cc(Cl)c2)C1=C(C#N)C#N)c1cc(CN2CCCCC2)ccc1Cl` [Compound 19, N-Propyl-N-[2-chloro-5-(piperidinomethyl)phenyl]-3-[3-(3,5-dichlorobenzyl)-2-dicyanomethylideneimidazolidin-1-yl]propionamide] was run?
Answer: Its inhibition at 10 µM is 101%.
